PubChem BioAssay (NCI)
Where “and” joins values, the source holds several entries; their conditions need not be identical. Equal entries are not always repeated.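 Method: 48-hour compound exposure of cells in 96-well plates, five concentrations, linear interpolation of endpoints. The concentration for 50% growth inhibition is given as GI50. Definition used: TGI = concentration required for complete inhibition of growth.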

Tests used:
Assay in all cases: NCI tumour cell line growth inhibition, 48 h
T-47D breast = test system: T-47D breast
MCF7 breast = test system: MCF7 breast
HCT-15 colon = test system: HCT-15 colon
MOLT-4 leukemia = test system: MOLT-4 leukemia
OVCAR-8 ovarian = test system: OVCAR-8 ovarian
SK-OV-3 ovarian = test system: SK-OV-3 ovarian
EKVX NSCLC = test system: EKVX NSCLC
DLD-1 colon = test system: DLD-1 colon
XF 498 CNS = test system: XF 498 CNS
KM20L2 colon = test system: KM20L2 colon

O=c1cc2oc3cc(O)c(O)cc3c(-c3ccccc3O)c-2cc1O
GI50 (T-47D breast): 9.51 µM
TGI (T-47D breast): > 100 µM
GI50 (MCF7 breast): 18.4 µM
TGI (MCF7 breast): > 100 µM
GI50 (HCT-15 colon): 38.3 µM
TGI (HCT-15 colon): > 100 µM
GI50 (MOLT-4 leukemia): 14.9 µM
TGI (MOLT-4 leukemia): > 100 µM
GI50 (OVCAR-8 ovarian): 16 µM
TGI (OVCAR-8 ovarian): > 100 µM
GI50 (SK-OV-3 ovarian): 7.65 µM
TGI (SK-OV-3 ovarian): > 100 µM
GI50 (EKVX NSCLC): 29.2 µM
TGI (EKVX NSCLC): > 100 µM

O=C(CC(O)(C(F)(F)F)C(F)(F)F)c1cc(CC(=O)C(O)(C(F)(F)F)C(F)(F)F)cc(CC(=O)C(O)(C(F)(F)F)C(F)(F)F)c1
TGI (T-47D breast): 4.26 µM
TGI (MCF7 breast): 9.82 µM
TGI (HCT-15 colon): > 8.79 µM
TGI (MOLT-4 leukemia): > 10 µM
TGI (OVCAR-8 ovarian): 6.91 µM
TGI (SK-OV-3 ovarian): 9.55 µM
TGI (EKVX NSCLC): > 9.06 µM

C=CCc1cccc(/C=N/NC(=O)CN2CCN(Cc3ccccc3)CC2)c1O
GI50 (T-47D breast): 2.32 µM
TGI (T-47D breast): 14.9 µM
GI50 (MCF7 breast): 2.52 µM
TGI (MCF7 breast): 12.5 µM
GI50 (HCT-15 colon): 0.693 µM
TGI (HCT-15 colon): 15.1 µM
GI50 (MOLT-4 leukemia): 1.12 µM
TGI (MOLT-4 leukemia): 5.64 µM
GI50 (OVCAR-8 ovarian): 2.08 µM
TGI (OVCAR-8 ovarian): 17.6 µM
GI50 (SK-OV-3 ovarian): 2.88 µM
TGI (SK-OV-3 ovarian): 17.8 µM
GI50 (EKVX NSCLC): 2.49 µM
TGI (EKVX NSCLC): 12.8 µM

COc1ccc2oc(-c3cccnc3)cc(=O)c2c1
TGI (DLD-1 colon): > 100 µM
TGI (MOLT-4 leukemia): > 100 µM
TGI (XF 498 CNS): > 100 µM

CCOC(=O)C(=Cc1cccc(Cl)c1)C(=O)OCC
GI50 (T-47D breast): 1.78 µM
TGI (T-47D breast): 4.26 µM
GI50 (MCF7 breast): 2.12 µM
TGI (MCF7 breast): 8.11 µM
GI50 (HCT-15 colon): 1.96 µM
TGI (HCT-15 colon): 5.27 µM
GI50 (MOLT-4 leukemia): 3.08 µM
TGI (MOLT-4 leukemia): 9.81 µM
GI50 (OVCAR-8 ovarian): 3.37 µM
TGI (OVCAR-8 ovarian): 12.8 µM
GI50 (SK-OV-3 ovarian): 10.6 µM
TGI (SK-OV-3 ovarian): 22.4 µM
GI50 (EKVX NSCLC): 3.75 µM
TGI (EKVX NSCLC): 14.3 µM

COc1cc(CNCCCN2C(=O)c3ccc4c5c(ccc(c35)C2=O)C(=O)N(CCCNCc2cc(OC)c(OC)c(OC)c2)C4=O)cc(OC)c1OC
GI50 (T-47D breast): 0.38 µM
TGI (T-47D breast): 1.12 µM
GI50 (MCF7 breast): 0.242 µM
TGI (MCF7 breast): 0.643 µM
GI50 (HCT-15 colon): 1.18 µM
TGI (HCT-15 colon): 3.55 µM
GI50 (MOLT-4 leukemia): 0.147 µM
TGI (MOLT-4 leukemia): 0.6 µM
GI50 (OVCAR-8 ovarian): 0.272 µM
TGI (OVCAR-8 ovarian): 0.959 µM
GI50 (SK-OV-3 ovarian): 1.01 µM
TGI (SK-OV-3 ovarian): 2.65 µM
GI50 (EKVX NSCLC): 0.543 µM
TGI (EKVX NSCLC): 1.35 µM

O=C(c1c(F)ccc(NS(=O)(=O)N2CC[C@@H](F)C2)c1F)c1c[nH]c2ncc(-c3cnc(C4CC4)nc3)cc12
GI50 (T-47D breast): 2.91 µM and 2.43 µM
TGI (T-47D breast): > 10 µM and 16.5 µM
GI50 (MCF7 breast): > 9.13 µM and 10.1 µM
TGI (MCF7 breast): > 10 µM and 44.5 µM
GI50 (HCT-15 colon): 5.69 µM and 5.21 µM
TGI (HCT-15 colon): > 10 µM and 40.6 µM
GI50 (MOLT-4 leukemia): 6.66 µM and 5.12 µM
TGI (MOLT-4 leukemia): > 10 µM and 35.5 µM
GI50 (OVCAR-8 ovarian): 5.22 µM and 7.06 µM
TGI (OVCAR-8 ovarian): > 10 µM and 55.3 µM
GI50 (SK-OV-3 ovarian): 3.39 µM and 3.66 µM
TGI (SK-OV-3 ovarian): > 10 µM and 21.4 µM
GI50 (EKVX NSCLC): > 10 µM and 9.15 µM
TGI (EKVX NSCLC): > 10 µM and 51.5 µM

CCCn1c(N)c(C(=O)N/N=C(/C)c2cc3cccc(OC)c3o2)sc1=S
GI50 (T-47D breast): > 100 µM
TGI (T-47D breast): > 100 µM
GI50 (MCF7 breast): 28 µM
TGI (MCF7 breast): > 100 µM
GI50 (HCT-15 colon): 22.1 µM
TGI (HCT-15 colon): > 100 µM
GI50 (MOLT-4 leukemia): 24.2 µM
TGI (MOLT-4 leukemia): > 100 µM
GI50 (OVCAR-8 ovarian): 13.8 µM
TGI (OVCAR-8 ovarian): > 100 µM
GI50 (SK-OV-3 ovarian): 65.4 µM
TGI (SK-OV-3 ovarian): > 100 µM
GI50 (EKVX NSCLC): 32.6 µM
TGI (EKVX NSCLC): > 100 µM

C=CC(=O)N1CCC(C2CCNc3c(C(N)=O)c(-c4ccc(Oc5ccccc5)cc4)nn32)CC1 (centres undefined)
GI50 (T-47D breast): 1.4 µM
TGI (T-47D breast): 28.4 µM
GI50 (MCF7 breast): 12.3 µM
TGI (MCF7 breast): 59.4 µM
GI50 (HCT-15 colon): 14.9 µM
TGI (HCT-15 colon): 46.3 µM
GI50 (MOLT-4 leukemia): 5.36 µM
TGI (MOLT-4 leukemia): 31 µM
GI50 (OVCAR-8 ovarian): 16.9 µM
TGI (OVCAR-8 ovarian): 59.2 µM
GI50 (SK-OV-3 ovarian): 0.572 µM
TGI (SK-OV-3 ovarian): 5.33 µM
GI50 (EKVX NSCLC): 3.49 µM
TGI (EKVX NSCLC): 42 µM

COC1[C@@H](OC(C)=O)[C@@H](NC(=O)C(Cl)(Cl)Cl)C(I)[C@@H](N2C(=O)c3ccccc3C2=O)[C@H]1OC (some centres undefined)
TGI (KM20L2 colon): > 100 µM
TGI (DLD-1 colon): > 100 µM
TGI (HCT-15 colon): > 100 µM
TGI (MOLT-4 leukemia): > 100 µM
TGI (OVCAR-8 ovarian): > 100 µM
TGI (EKVX NSCLC): > 100 µM

CCOc1ccc(N2C(=O)/C(=C/c3ccc(N(CCC#N)CCC#N)cc3)N=C2c2cc([N+](=O)[O-])ccc2Cl)cc1
TGI (DLD-1 colon): > 100 µM
TGI (HCT-15 colon): > 100 µM
TGI (MOLT-4 leukemia): 13.8 µM
TGI (OVCAR-8 ovarian): > 100 µM
TGI (SK-OV-3 ovarian): > 100 µM
TGI (EKVX NSCLC): > 100 µM

CCOc1ccc2nc(S/C(=C/C=C(C#N)C#N)c3ccc(C)cc3)sc2c1
GI50 (T-47D breast): 42.4 µM
TGI (T-47D breast): > 100 µM
GI50 (MCF7 breast): 17.8 µM
TGI (MCF7 breast): 79.6 µM
GI50 (HCT-15 colon): 12.2 µM
TGI (HCT-15 colon): 28.8 µM
GI50 (MOLT-4 leukemia): 3.03 µM
TGI (MOLT-4 leukemia): 8.5 µM
GI50 (OVCAR-8 ovarian): 32.8 µM
TGI (OVCAR-8 ovarian): > 100 µM
GI50 (SK-OV-3 ovarian): > 100 µM
TGI (SK-OV-3 ovarian): > 100 µM
GI50 (EKVX NSCLC): > 100 µM
TGI (EKVX NSCLC): > 100 µM

O=C1NC(=S)NNC12c1ccccc1-c1ccccc12
TGI (T-47D breast): > 10 µM
TGI (MCF7 breast): > 10 µM
TGI (HCT-15 colon): > 10 µM
TGI (MOLT-4 leukemia): > 10 µM
TGI (OVCAR-8 ovarian): > 10 µM
TGI (SK-OV-3 ovarian): > 10 µM
TGI (EKVX NSCLC): > 10 µM

COc1ccncc1C#Cc1cncc(C(=O)Nc2ccc(CN3CCN(C)CC3)c(C(F)(F)F)c2)c1
GI50 (T-47D breast): 89.1 µM
TGI (T-47D breast): > 100 µM
GI50 (MCF7 breast): 11.1 µM
TGI (MCF7 breast): 94.6 µM
GI50 (HCT-15 colon): 19.8 µM
TGI (HCT-15 colon): > 100 µM
GI50 (MOLT-4 leukemia): 14.5 µM
TGI (MOLT-4 leukemia): > 100 µM
GI50 (OVCAR-8 ovarian): 27.1 µM
TGI (OVCAR-8 ovarian): > 100 µM
GI50 (SK-OV-3 ovarian): 28.9 µM
TGI (SK-OV-3 ovarian): > 100 µM
GI50 (EKVX NSCLC): 24.7 µM
TGI (EKVX NSCLC): > 100 µM

C=CCCCCCCCCCCC1(O)C=CC2=[N+](CCCCCN=C(N)N)CCCN21 (centres undefined)
GI50 (T-47D breast): 22 µM
TGI (T-47D breast): 55.6 µM
GI50 (MCF7 breast): 12.3 µM
TGI (MCF7 breast): 40.8 µM
GI50 (HCT-15 colon): 4.87 µM
TGI (HCT-15 colon): 18.6 µM
GI50 (MOLT-4 leukemia): 4.4 µM
TGI (MOLT-4 leukemia): 20.4 µM
GI50 (OVCAR-8 ovarian): 7.24 µM
TGI (OVCAR-8 ovarian): 26.1 µM
GI50 (SK-OV-3 ovarian): 19.1 µM
TGI (SK-OV-3 ovarian): 38.5 µM
GI50 (EKVX NSCLC): 10.8 µM
TGI (EKVX NSCLC): 26.7 µM

O=C1c2ccccc2C2(O)c3cc4ccccc4cc3OC12O (centres undefined)
TGI (KM20L2 colon): > 100 µM
TGI (DLD-1 colon): > 100 µM
TGI (HCT-15 colon): > 100 µM
TGI (MOLT-4 leukemia): > 100 µM
TGI (OVCAR-8 ovarian): > 100 µM
TGI (SK-OV-3 ovarian): > 100 µM
TGI (EKVX NSCLC): > 100 µM

Cc1csc(Nc2nc(-c3cccc(Br)c3)nc(C(Cl)(Cl)Cl)n2)n1
GI50 (T-47D breast): 1.38 µM
TGI (T-47D breast): > 26.8 µM
GI50 (MCF7 breast): 1.43 µM
TGI (MCF7 breast): > 100 µM
GI50 (HCT-15 colon): 4.95 µM
TGI (HCT-15 colon): > 100 µM
GI50 (MOLT-4 leukemia): > 40.9 µM
TGI (MOLT-4 leukemia): > 100 µM
GI50 (OVCAR-8 ovarian): > 29.2 µM
TGI (OVCAR-8 ovarian): > 100 µM
GI50 (SK-OV-3 ovarian): > 100 µM
TGI (SK-OV-3 ovarian): > 100 µM
GI50 (EKVX NSCLC): 1.61 µM
TGI (EKVX NSCLC): 5.35 µM

Cn1cnc([N+](=O)[O-])c1S(=O)(=O)Oc1ccccc1
GI50 (T-47D breast): 2.3 µM
TGI (T-47D breast): 7.73 µM
GI50 (MCF7 breast): 7.82 µM
TGI (MCF7 breast): > 44.3 µM
GI50 (HCT-15 colon): 2.74 µM
TGI (HCT-15 colon): > 28.4 µM
GI50 (MOLT-4 leukemia): 3.65 µM
TGI (MOLT-4 leukemia): 18.9 µM
GI50 (OVCAR-8 ovarian): 22.6 µM
TGI (OVCAR-8 ovarian): > 92.7 µM
GI50 (SK-OV-3 ovarian): 97.5 µM
TGI (SK-OV-3 ovarian): > 100 µM
GI50 (EKVX NSCLC): 17 µM
TGI (EKVX NSCLC): 41.2 µM
